ChEMBL document CHEMBL3046737, “Mode of Action of Cyanohydrins in Insects” (J Pestic Sci, 2005)
≈ marks a conversion by molar mass, not a printed value.

Columns and labels:
[1] = test system: Musca domestica; assay: Drug level in Musca domestica (house fly) assessed as cyanide ion level per gram of insect at L99 treated as fumigation after 24 hr by spectrophotometric method; assay type: ADME, organism-based; conditions: in vivo, inhaled_or_intranasal
[2] = test system: Musca domestica; assay: Insecticidal activity against Musca domestica (house fly) after 24 hr; assay type: functional
[3] = test system: Musca domestica; assay: Drug level in Musca domestica (house fly) assessed as cyanide ion level per gram of insect at L99 treated topically after 24 hr by spectrophotometric method; assay type: ADME, organism-based; conditions: in vivo, topical_or_ocular
[4] = test system: Musca domestica; assay: Drug level in Musca domestica (house fly) at 1000 ug after 24 hr by spectrophotometric method; assay type: ADME, organism-based; conditions: in vivo
[5] = test system: Rhyzopertha dominica; assay: Drug level in Rhyzopertha dominica assessed as cyanide ion level per gram of insect at L99 treated as fumigation after 24 hr by spectrophotometric method; assay type: ADME, organism-based; conditions: in vivo, other
[6] = test system: Rhyzopertha dominica; assay: Insecticidal activity against Rhyzopertha dominica after 24 hr; assay type: functional

| Structure (SMILES) | Drug uptake [1] | LC50 [2] | Drug uptake [3] | Drug uptake [4] | Drug uptake [5] | LC50 [6] |
| --- | --- | --- | --- | --- | --- | --- |
| C=CC(O)C#N (centres undefined) | 38 ppm | 0.056 µg/mL (≈ 0.674 µM) | 52 ppm | 53% | 35 ppm | 0.37 µg/mL (≈ 4.45 µM) |
| C=CC(C#N)OC(C)=O (centres undefined) [1-CYANOALLYL ACETATE] | 39 ppm | 0.26 µg/mL | 54 ppm | 53% | 33 ppm | 0.37 µg/mL |
| CCC(Cl)Cl [DICHLOROPROPANE] |  | 0.9 µg/mL (≈ 7.97 µM) |  |  |  | 5.47 µg/mL (≈ 48.4 µM) |
| COP(=O)(OC)OC=C(Cl)Cl [DICHLORVOS] |  | 0.011 µg/mL (≈ 0.0498 µM) |  |  |  | 0.29 µg/mL (≈ 1.31 µM) |
| CC(C)(O)C#N [DIMETHYLKETONE CYANOHYDRIN] | 48 ppm | 0.07 µg/mL (≈ 0.823 µM) | 56 ppm | 53% | 43 ppm | 0.4 µg/mL (≈ 4.7 µM) |
| CCC(C)(O)C#N (centres undefined) [METHYLETHYL KETONE CYANOHYDRIN] |  | 0.09 µg/mL (≈ 0.908 µM) |  |  |  | 0.41 µg/mL (≈ 4.14 µM) |
